In PMC10053440, “Semi-Synthesis and Biological Evaluation of 25(R)-26-Acetoxy-3β,5α-Dihydroxycholest-6-One” (Marine Drugs, 2023):

Assays:
[1] = system: HCT 116 (human colorectal cancer cell); test: CCK-8 anti-proliferation assay, HCT 116; type: cell-based; settings: 48 h, mean ± SEM, read-out: Inhibition Rate (%)
Protocol: (§1) One concentration was set for each sample during preliminary screening and three multiple holes were set for each concentration. Eight concentration gradients were set for each sample for IC50 determination and three multiple holes were set for each concentration. […] The absorbance was measured at 450 nm with an enzyme labeling instrument and the original data and results were recorded. […] Doxorubicin was used as a positive control. All the cancer cell lines were obtained from Qingdao AC biotechnology Co., LTD, Qingdao, China.

[2] = system: A549 (human lung adenocarcinoma cell); test: CCK-8 anti-proliferation assay, A549; type: cell-based; settings: A549, 48 h, mean ± SEM, read-out: Inhibition Rate (%)
Protocol: as §1

[3] = system: A-375 (human melanoma cell); test: CCK-8 anti-proliferation assay, A-375; type: cell-based; settings: 48 h, mean ± SEM, read-out: Inhibition Rate (%)
Protocol: as §1

A-673 (Ewing sarcoma) = test: CCK-8 anti-proliferation assay, A-673; type: cell-based; settings: Homo sapiens, 48 h, mean ± SEM, read-out: Inhibition Rate (%); for inhibition at 20 µM: A673, at 20 µM
Protocol: as §1

[4] = system: MCF7 (human breast cancer cell); test: CCK-8 anti-proliferation assay, MCF7; type: cell-based; settings: 48 h, mean ± SEM, read-out: Inhibition Rate (%)
Protocol: as §1

[5] = system: SF126 (human glioblastoma cell); test: CCK-8 anti-proliferation assay, SF126; type: cell-based; settings: 48 h, mean ± SEM, read-out: Inhibition Rate (%); for inhibition at 20 µM: SF-126, at 20 µM
Protocol: as §1

[6] = system: K-562 (human myeloid leukemia cell); test: CCK-8 anti-proliferation assay, K-562; type: cell-based; settings: 48 h, mean ± SEM; for inhibition at 20 µM: K562, at 20 µM; for Inhibition Rate (%): at 20 µM
Protocol: as §1

[7] = system: HOS (human osteosarcoma cell); test: CCK-8 anti-proliferation assay, HOS; type: cell-based; settings: 48 h, mean ± SEM, read-out: Inhibition Rate (%)
Protocol: as §1

[8] = system: 786-O (human renal cancer cell); test: CCK-8 anti-proliferation assay, 786-O; type: cell-based; settings: 48 h, mean ± SEM, read-out: Inhibition Rate (%); for inhibition at 20 µM: 786-0, at 20 µM
Protocol: as §1

[9] = system: MKN-45 (human gastric cancer cell); test: CCK-8 anti-proliferation assay, MKN-45; type: cell-based; settings: 48 h, mean ± SEM, read-out: Inhibition Rate (%)
Protocol: as §1

[10] = system: HepG2 (human liver carcinoma cell); test: CCK-8 anti-proliferation assay, HepG2; type: cell-based; settings: for IC50: CCK-8, 48 h, read-out: IC50 against HepG2 cells
Protocol: as §1

[11] = system: TE-1 (human esophageal cancer cell); test: CCK-8 anti-proliferation assay, TE-1; type: cell-based; settings: 48 h, mean ± SEM, read-out: Inhibition Rate (%)
Protocol: as §1

[12] = system: HeLa (human cervical cancer cell); test: CCK-8 anti-proliferation assay, HeLa; type: cell-based; settings: 48 h, mean ± SEM, read-out: Inhibition Rate (%)
Protocol: as §1

[13] = system: CAL-62 (human thyroid anaplastic carcinoma cell); test: CCK-8 anti-proliferation assay, CAL-62; type: cell-based; settings: 48 h, mean ± SEM, read-out: Inhibition Rate (%)
Protocol: as §1

[14] = system: GBC-SD (human gallbladder carcinoma cell); test: CCK-8 anti-proliferation assay, GBC-SD; type: cell-based; settings: 48 h, mean ± SEM, read-out: Inhibition Rate (%)
Protocol: as §1

[15] = system: L-02 (human hepatocyte cell); test: CCK-8 anti-proliferation assay, L-02; type: cell-based; settings: L-02 normal liver cells, 48 h, mean ± SEM, read-out: Inhibition Rate (%)
Protocol: as §1

[16] = system: DU145 (human prostate carcinoma cell); test: CCK-8 anti-proliferation assay, DU145; type: cell-based; settings: 48 h, mean ± SEM, read-out: Inhibition Rate (%); for inhibition at 20 µM: DU-145, at 20 µM
Protocol: as §1

[17] = system: 293T (human embryonic kidney cell); test: CCK-8 anti-proliferation assay, 293T; type: cell-based; settings: HEK-293T, 48 h, mean ± SEM, read-out: Inhibition Rate (%)
Protocol: as §1

[18] = system: 5637 (HTB-9) (human bladder cancer cell); test: CCK-8 anti-proliferation assay, 5637 (HTB-9); type: cell-based; settings: for IC50: CCK-8, 48 h, read-out: IC50 against 5637 (HTB-9) cells
Protocol: as §1

[19] = system: PATU8988T (human pancreatic cancer cell); test: CCK-8 anti-proliferation assay, PATU8988T; type: cell-based; settings: PaTu 8988t, 48 h, mean ± SEM, read-out: Inhibition Rate (%)
Protocol: as §1

[20] = system: respiratory syncytial virus (RSV); test: Anti-RSV activity assay (RT-qPCR); type: cell-based; settings: human respiratory syncytial virus, HEp-2 cells, mean ± SEM, read-out: Inhibition rate (%) of RSV replication
Text: Remdesivir was selected and evaluated as a positive control.

[21] = system: respiratory syncytial virus (RSV); design: method as in PMID 24882250; settings: read-out: anti-RSV IC50; cited from earlier work
[22] = Homo sapiens, read-out: Inhibition Rate (%)
[23] = 48 h, mean ± SEM, read-out: Inhibition Rate (%)
[24] = 5637 (HTB-9), 48 h, mean ± SEM, read-out: Inhibition Rate (%)

`COc1cccc2c1C(=O)c1c(O)c3c(c(O)c1C2=O)C[C@@](O)(C(=O)CO)C[C@@H]3O[C@H]1C[C@H](N)[C@H](O)[C@H](C)O1` [Doxorubicin, reference compound] showed an inhibition at 10 µM ([1]; at 10 µM) of 88.9 ± 1.5%, an inhibition at 10 µM ([2]; at 10 µM) of 75.9 ± 2.5% and an inhibition at 10 µM ([3]; at 10 µM) of 95.3 ± 1%. The inhibition at 10 µM (A-673 (Ewing sarcoma); A673, at 10 µM) was 98.7 ± 0.6%, the inhibition at 10 µM ([4]; at 10 µM) was 55.9 ± 1.7% and the inhibition at 10 µM ([5]; SF-126, at 10 µM) was 97.1 ± 1%. The inhibition at 10 µM ([6]; Homo sapiens, K562, at 10 µM, read-out: Inhibition Rate (%)) was 67.5 ± 1%, the inhibition at 10 µM ([7]; at 10 µM) was 98.4 ± 0.9% and the inhibition at 10 µM ([8]; 786-0, at 10 µM) was 86.3 ± 1.9%. The inhibition at 10 µM ([9]; at 10 µM) was 89.8 ± 0.5%, the inhibition at 10 µM ([10]; at 10 µM, 48 h, mean ± SEM, read-out: Inhibition Rate (%)) was 95.9 ± 1.9% and the inhibition at 10 µM ([11]; at 10 µM) was 83.3 ± 1.1%. For the same molecule, the inhibition at 10 µM ([12]; at 10 µM) was 97.7 ± 0.4%, the inhibition at 10 µM ([13]; at 10 µM) was 92.6 ± 1.3% and the inhibition at 10 µM ([14]; at 10 µM) was 76.7 ± 1.5%. The inhibition at 10 µM ([15]; at 10 µM) was 99.2 ± 0.1%, the inhibition at 10 µM ([16]; DU-145, at 10 µM) was 76.4 ± 1.6% and the inhibition at 10 µM ([17]; at 10 µM) was 88.2 ± 1.2%. It also gave an inhibition at 10 µM ([18]; 5637 (HTB-9), at 10 µM, 48 h, mean ± SEM, read-out: Inhibition Rate (%)) of 99.3 ± 0.3% and an inhibition at 10 µM ([19]; at 10 µM) of 98.4 ± 0.6%.
`CCC(CC)COC(=O)[C@H](C)N[P@](=O)(OC[C@H]1O[C@@](C#N)(c2ccc3c(N)ncnn23)[C@H](O)[C@@H]1O)Oc1ccccc1` [Remdesivir, reference compound] gave an inhibition at 10 µM [20] of 91.8 ± 0.5%.
For `CC(=O)OC[C@@H](C)C/C=C/[C@@H](C)[C@H]1CC[C@H]2[C@@H]3CC(=O)[C@@]4(O)C[C@@H](O)CC[C@]4(C)[C@H]3CC[C@]12C` [compound 1], the IC50 [21] is listed as 0.78 µM.
For `CC(=O)OC[C@@H](C)[C@H](C)/C=C/[C@@H](C)[C@H]1CC[C@H]2[C@@H]3CC(=O)[C@@]4(O)C[C@@H](O)CC[C@]4(C)[C@H]3CC[C@]12C` [compound 2], the IC50 [21] is given as 0.19 µM.
For `CC(=O)OC[C@H](C)[C@H](C)/C=C/[C@@H](C)[C@H]1CC[C@H]2[C@@H]3CC(=O)[C@@]4(O)C[C@@H](O)CC[C@]4(C)[C@H]3CC[C@]12C` [compound 3], the IC50 [21] is given as 0.19 µM.
Molecule `C[C@@H](CO)CCC[C@@H](C)[C@H]1[C@@H](O)C[C@H]2[C@@H]3CC=C4C[C@@H](O)CC[C@]4(C)[C@H]3CC[C@]12C` [compound 8, (3S,8S,9S,10R,13S,14S,16S,17R)-17-((2R,6R)-7-Hydroxy-6-Methylheptan-2-yl)-10,13-Dimethyl-2,3,4,7,8,9,10,11,12,13,14,15,16,17-Tetradecahydro-1H-Cyclopenta[a]Phenanthrene-3,16-diol] has an inhibition at 20 µM [1] of 61.7 ± 2.1%, an inhibition at 20 µM [2] of 53 ± 2.7% and an inhibition at 20 µM [3] of 72.3 ± 0.6%. The inhibition at 20 µM (A-673 (Ewing sarcoma)) was 51.9 ± 2.8%, the inhibition at 20 µM [4] was 31.2 ± 1.4% and the inhibition at 20 µM [5] was 30.7 ± 2.4%. For the same molecule, the inhibition at 20 µM [6, 22] was 7.2 ± 2.2%, the “Inhibition Rate (%)” value [6] was “did not exhibit any anti-proliferative activities” and the inhibition at 20 µM [7] was 2.7 ± 4%. It also gave an inhibition at 20 µM [8] of 69 ± 1.8%, an inhibition at 10 µM [20] of 24.9 ± 2.6% and an inhibition at 20 µM [9] of 54.4 ± 1.9%. The IC50 [10] was 12 µM, the inhibition at 20 µM [10, 23] was 76.8 ± 1.3% and the inhibition at 20 µM [11] was 34 ± 3.8%. For the same molecule, the inhibition at 20 µM [12] was 49.7 ± 3.6%, the inhibition at 20 µM [13] was 28 ± 4% and the inhibition at 20 µM [14] was 26.8 ± 1.3%. The inhibition at 20 µM [15] was 8.1 ± 1.3%, the inhibition at 20 µM [16] was 26 ± 1.7% and the inhibition at 20 µM [17] was 42.4 ± 2.1%. For the same molecule, the inhibition at 20 µM [18, 24] was 75.1 ± 0.8%, the IC50 [18] was 5.8 µM and the inhibition at 20 µM [19] was 62.7 ± 2%.
In the case of `C[C@@H](CO)CCC[C@@H](C)[C@H]1CC[C@H]2[C@@H]3CC=C4C[C@@H](O)CC[C@]4(C)[C@H]3CC[C@]12C` [compound 11, (3S,8S,9S,10R,13R,14S,17R)-17-((2R,6R)-7-Hydroxy-6-Methylheptan-2-yl)-10,13-Dimethyl-2,3,4,7,8,9,10,11,12,13,14,15,16,17-Tetradecahydro-1H-Cyclopenta[a]Phenanthren-3-ol], the inhibition at 20 µM [1] is reported as 19.8 ± 1.4%, the inhibition at 20 µM [2] is reported as ≤ 50% and the inhibition at 20 µM [3] is reported as 60.8 ± 1.4%. For the same molecule, the inhibition at 20 µM (A-673 (Ewing sarcoma)) was 26.5 ± 2.1%, the inhibition at 20 µM [4] was 14.1 ± 0.5% and the inhibition at 20 µM [5] was 11.7 ± 2.9%. The inhibition at 20 µM [6, 22] was 13.1 ± 1.8%, the “Inhibition Rate (%)” value [6] was “did not exhibit any anti-proliferative activities” and the inhibition at 20 µM [7] was 9.3 ± 4.3%. For the same molecule, the inhibition at 20 µM [8] was 65.9 ± 2.4%, the inhibition at 10 µM [20] was 22.2 ± 3.9% and the inhibition at 20 µM [9] was 53.8 ± 1.6%. For the same molecule, the IC50 [10] was 5.6 µM, the inhibition at 20 µM [10, 23] was 64.2 ± 2.5% and the inhibition at 20 µM [11] was 27.7 ± 0.6%. For the same molecule, the inhibition at 20 µM [12] was 14.9 ± 2.2%, the inhibition at 20 µM [13] was 12.5 ± 3.9% and the inhibition at 20 µM [14] was 10.4 ± 3.3%. It also gave an inhibition at 20 µM [15] of 2.8 ± 2.1%, an inhibition at 20 µM [16] of 18.4 ± 3.7% and an inhibition at 20 µM [17] of -18.2 ± 1.3%. The inhibition at 20 µM [18, 24] was 80.5 ± 2.5%, the IC50 [18] was 3 µM and the inhibition at 20 µM [19] was 63.3 ± 4.2%.
